Data as given in the supplement of paper PMC4862054.

Key:
Assay in all cases: normalised viability (% of control), CellTiter-Blue; higher = more viable cells (about 100 = DMSO control)
Settings in all cases: incubation time: 72 h
CAL-85-1 [1] = system: CAL-85-1
Protocol: (§1)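 DSRT, CellTiter-Blue viability, 72 h incubation. Signal is normalised to DMSO and benzethonium chloride controls. Value is the normalised response at dose 9.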

CAL-148 [2] = system: CAL-148
Protocol: as §1

HDQ-P1 [3] = system: HDQ-P1
Protocol: as §1

MDA-MB-453 [4] = system: MDA-MB-453
Protocol: as §1

CAL-51 [5] = system: CAL-51
Protocol: as §1

DU-4475 [6] = system: DU-4475
Protocol: as §1

CAL-85-1 [7] = system: CAL-85-1; remark: listed apart in the source
Protocol: (§2)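 DSRT, CellTiter-Blue viability, 72 h incubation. Signal is normalised to DMSO and benzethonium chloride controls. Value is the normalised response at dose 7.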

CAL-148 [8] = system: CAL-148; remark: listed apart in the source
Protocol: as §2

HDQ-P1 [9] = system: HDQ-P1; remark: listed apart in the source
Protocol: as §2

MDA-MB-453 [10] = system: MDA-MB-453; remark: listed apart in the source
Protocol: as §2

CAL-51 [11] = system: CAL-51; remark: listed apart in the source
Protocol: as §2

DU-4475 [12] = system: DU-4475; remark: listed apart in the source
Protocol: as §2

CAL-85-1 [13] = system: CAL-85-1; remark: listed apart in the source
Protocol: (§3)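 DSRT, CellTiter-Blue viability, 72 h incubation. Signal is normalised to DMSO and benzethonium chloride controls. Value is the normalised response at dose 6.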

CAL-148 [14] = system: CAL-148; remark: listed apart in the source
Protocol: as §3

HDQ-P1 [15] = system: HDQ-P1; remark: listed apart in the source
Protocol: as §3

MDA-MB-453 [16] = system: MDA-MB-453; remark: listed apart in the source
Protocol: as §3

CAL-51 [17] = system: CAL-51; remark: listed apart in the source
Protocol: as §3

DU-4475 [18] = system: DU-4475; remark: listed apart in the source
Protocol: as §3

Row | Compound | normalised viability (CAL-85-1 [13]) | normalised viability (CAL-148 [14]) | normalised viability (HDQ-P1 [15]) | normalised viability (MDA-MB-453 [16]) | normalised viability (CAL-51 [17]) | normalised viability (DU-4475 [18]) | other results
1 | COC(=O)C[C@](O)(CCCC(C)(C)O)C(=O)O[C@@H]1C(OC)=C[C@]23CCCN2CCc2cc4c(cc2[C@H]13)OCO4 [Omacetaxine mepesuccinate] (10000 nM) |  |  |  |  |  |  | normalised viability (CAL-85-1 [1]): 2.22%; normalised viability (CAL-148 [2]): 5.68%; normalised viability (HDQ-P1 [3]): 15.2%; normalised viability (MDA-MB-453 [4]): 2.46%; normalised viability (CAL-51 [5]): 3.97%; normalised viability (DU-4475 [6]): 1.55%
2 | c1ccc(C2CN3CCSC3=N2)cc1 (centres undefined) [Tetramisole] (10000 nM) |  |  |  |  |  |  | normalised viability (CAL-85-1 [1]): 98.1%; normalised viability (CAL-148 [2]): 117%; normalised viability (HDQ-P1 [3]): 116%; normalised viability (MDA-MB-453 [4]): 99.5%; normalised viability (CAL-51 [5]): 89.3%; normalised viability (DU-4475 [6]): 101%
3 | O=P(O)(NCCCl)NCCCl [Ifosfamide mustard] (1000 nM) |  |  |  |  |  |  | normalised viability (CAL-85-1 [7]): 89.4%; normalised viability (CAL-148 [8]): 111%; normalised viability (HDQ-P1 [9]): 119%; normalised viability (MDA-MB-453 [10]): 104%; normalised viability (CAL-51 [11]): 107%; normalised viability (DU-4475 [12]): 112%
4 | CC[C@@]1(O)C(=O)OCc2c1cc1n(c2=O)Cc2cc3ccccc3nc2-1 [Camptothecin] (500 nM) |  |  |  |  |  |  | normalised viability (CAL-85-1 [7]): 40%; normalised viability (CAL-148 [8]): 8%; normalised viability (HDQ-P1 [9]): 50.3%; normalised viability (MDA-MB-453 [10]): 23.7%; normalised viability (CAL-51 [11]): 5.8%; normalised viability (DU-4475 [12]): 10.7%
5 | CCOc1cc2ncc(C#N)c(Nc3ccc(OCc4ccccn4)c(Cl)c3)c2cc1NC(=O)/C=C/CN(C)C [Neratinib] (30 nM) | 107% | 85.9% | 94.3% | 81.2% | 96% | 100% | 
6 | COc1c(C)cnc(Cn2cnc3c(Cl)nc(N)nc32)c1C [BIIB021] (300 nM) | 56.8% | 29.5% | 60.8% | 17.3% | 57.6% | 0.39% | 
7 | CC(C)(C)c1cc(NC(=O)Nc2ccc(-c3cn4c(n3)sc3cc(OCCN5CCOCC5)ccc34)cc2)no1 [Quizartinib] (30 nM) | 97.2% | 103% | 53.4% | 102% | 101% | 109% | 
8 | COC1=C2C[C@@H](C)C[C@H](OC)[C@H](O)[C@@H](C)/C=C(\C)[C@H](OC(N)=O)[C@@H](OC)/C=C\C=C(/C)C(=O)NC(=CC1=O)C2=O [Geldanamycin] (300 nM) | 47.7% | 28.9% | 46.5% | 6.01% | 74.5% | 0.05% | 
9 | Cn1cnc2c(F)c(Nc3ccc(Br)cc3F)c(C(=O)NOCCO)cc21 [MEK-162] (30 nM) | 101% | 95.1% | 47.6% | 118% | 96.5% | 61.2% | 
10 | CCCC(CCC)C(=O)O [Valproic acid] (300 nM) | 90% | 103% | 112% | 103% | 103% | 83.7% | 
11 | O=P(O)(NCCCl)NCCCl [Ifosfamide mustard] (10000 nM) |  |  |  |  |  |  | normalised viability (CAL-85-1 [1]): 87.1%; normalised viability (CAL-148 [2]): 105%; normalised viability (HDQ-P1 [3]): 105%; normalised viability (MDA-MB-453 [4]): 99.8%; normalised viability (CAL-51 [5]): 94.3%; normalised viability (DU-4475 [6]): 96.1%
12 | O=c1[nH]cc(F)c(=O)[nH]1 [Fluorouracil] (300 nM) | 87.2% | 96.7% | 87.2% | 85.7% | 101% | 102% | 
13 | COc1ccc(C2=N[C@@H](c3ccc(Cl)cc3)[C@@H](c3ccc(Cl)cc3)N2C(=O)N2CCNC(=O)C2)c(OC(C)C)c1 [Nutlin-3] (300 nM) | 89.9% | 96.3% | 66.2% | 91.2% | 99% | 84.8% | 
14 | CC[C@@]1(O)C(=O)OCc2c1cc1n(c2=O)Cc2cc3ccccc3nc2-1 [Camptothecin] (150 nM) | 61% | 12.8% | 48.3% | 50.7% | 12.7% | 13.9% | 
